Results: patent US20260224486A1, “DIANHYDROHEXITOL BASED IONIZABLE LIPIDS FOR NUCLEIC ACID DELIVERY” (SANOFI PASTEUR INC., priority 2023, published 2026)

Tested on: BALB/cJ mice
Assay: Delivery of hEPO mRNA by intramuscular administration of LNPs; serum hEPO by ELISA
Format: in vivo, Mouse
Description: In summary, lipid screening studies were conducted with female BALB/cJ mice 6-8 weeks of age. Mice were dosed with 0.1 μg in 30 μL of LNPs by a single intramuscular (IM) injection into the gastrocnemius leg muscle. Blood samples were taken 6 and 24 hours post injection and hEPO levels were measured in the blood serum of the mice using an ELISA assay according to the manufacture's protocol.
Treatment Regimen: On Day 1, animals from Groups 1-33 were dosed via intramuscular injection while under light isoflurane anesthesia according to the study design table above. Animals in Groups 1-33 were injected with EPO mRNA LNPs in the right leg only. Groups 1 and 17 animals received MC3 control.
Interim Sample Collections: Interim whole blood (^~50 μL) was collected by tail snip or saphenous vein at 6 and 24 hours post dose administration (±5%). Blood samples were collected into serum separator tubes, allowed to clot at room temperature for at least 10 minutes, centrifuged at ambient temperature at minimum 1000 g for 10 minutes and the serum was extracted. All serum samples were stored at nominally −70° C. until analysis hEPO by the Testing Facility. The results of the EPO analysis were included in the Data Submission.
Terminal Blood Collections: Whole blood was collected via cardiac puncture into serum separator tube, allowed to clot at room temperature for at least 10 minutes, centrifuged at ambient temperature at minimum 1000 g for 10 minutes and the serum was extracted. Serum samples were stored at nominally −70° C. until analyzed for hEPO by the Test Facility.
ELISA Assay: Human erythropoietin (hEPO) levels in sera samples were determined by ELISA kit (R&D systems, Cat #DEP-00) according to the manufactory instruction and the results were included in the Data Submission. The “shaker” protocol was used. The serum samples were diluted between 1:40 and 1:100.

[1] = Table 4, further lipids, mouse serum 6 hours post IM injection of hEPO mRNA LNP as in example 3
[2] = Table 5, comparative ether compounds, mouse serum 6 hours post IM injection of hEPO mRNA LNP as in example 3

Row | SMILES | hEPO 6 Hr (ng/ml) Mean [1] | also measured
1 | CCCCCCCCC(O)CN(CCCOC(=O)O[C@@H]1CO[C@H]2[C@@H]1OC[C@H]2OC(=O)OCCCN(CC(O)CCCCCCCC)CC(O)CCCCCCCC)CC(O)CCCCCCCC (stereo partly shown) [Compound 79] | 21.2 ng/mL | –
2 | CCCCCCCCCCC(O)CN(CCCCC(=O)O[C@@H]1CO[C@H]2[C@@H]1OC[C@H]2OC(=O)CCCN(CC(O)CCCCCCCCCC)CC(O)CCCCCCCCCC)CC(O)CCCCCCCCCC (stereo partly shown) [Compound 56] | 51.9 ng/mL | –
3 | CCCCCC/C=C\COC(=O)CCCCCC(O)CN(CCCC(=O)N[C@H]1CO[C@H]2[C@@H]1OC[C@@H]2NC(=O)CCCN(CC(O)CCCCCC(=O)OC/C=C\CCCCCC)CC(O)CCCCCC(=O)OC/C=C\CCCCCC)CC(O)CCCCCC(=O)OC/C=C\CCCCCC (stereo partly shown) [Compound 74] | 2.1 ng/mL | –
4 | CCCCCCCCCCC(O)CN(CCCS[C@H]1CO[C@H]2[C@@H]1OC[C@@H]2SCCCN(CC(O)CCCCCCCCCC)CC(O)CCCCCCCCCC)CC(O)CCCCCCCCCC (stereo partly shown) [Compound 81] | 2.3 ng/mL | –
5 | CCCCCCCCCCCCC(O)CN(CCCC(=O)S[C@H]1CO[C@H]2[C@@H]1OC[C@@H]2SC(=O)CCCN(CC(O)CCCCCCCCCCCC)CC(O)CCCCCCCCCCCC)CC(O)CCCCCCCCCCCC (stereo partly shown) [Compound 82] | 3.1 ng/mL | –
6 | CCCCCCCCCCC(O)CN(CCCCC(=O)N[C@H]1CO[C@H]2[C@@H]1OC[C@@H]2NC(=O)CCCCN(CC(O)CCCCCCCCCC)CC(O)CCCCCCCCCC)CC(O)CCCCCCCCCC (stereo partly shown) [Compound 71] | 72.0 ng/mL | –
7 | CCCCCC/C=C\COC(=O)CCCCCCCN(CCCCCCCC(=O)OC/C=C\CCCCCC)CCCC(=O)N[C@H]1CO[C@H]2[C@@H]1OC[C@@H]2NC(=O)CCCN(CCCCCCCC(=O)OC/C=C\CCCCCC)CCCCCCCC(=O)OC/C=C\CCCCCC [Compound 75] | 2.1 ng/mL | –
8 | CCCCCCCCCCCCC(O)CN(CCCO[C@@H]1CO[C@H]2[C@@H]1OC[C@H]2OCCCN(CC(O)CCCCCCCCCCCC)CC(O)CCCCCCCCCCCC)CC(O)CCCCCCCCCCCC (stereo partly shown) [reference compound] | – | hEPO 6 Hr (ng/ml) Mean [2]: 13.9 ng/mL
9 | CCCCCCCCCCCOC(=O)CCCCCN(CCCCCCCC(=O)OC(CCCCCCCC)CCCCCCCC)CCCC(=O)N[C@H]1CO[C@H]2[C@@H]1OC[C@@H]2NC(=O)CCCN(CCCCCCCC(=O)OC(CCCCCCCC)CCCCCCCC)CCCCCC(=O)OCCCCCCCCCCC [Compound 72] | 6.2 ng/mL | –
10 | CCCCCCCCCCC(O)CN(CCCO[C@@H]1CO[C@H]2[C@@H]1OC[C@H]2OCCCN(CC(O)CCCCCCCCCC)CC(O)CCCCCCCCCC)CC(O)CCCCCCCCCC (stereo partly shown) [reference compound] | – | hEPO 6 Hr (ng/ml) Mean [2]: 33.8 ng/mL
11 | CCCCCCCCC(O)CN(CCCCC(=O)N[C@H]1CO[C@H]2[C@@H]1OC[C@@H]2NC(=O)CCCCN(CC(O)CCCCCCCC)CC(O)CCCCCCCC)CC(O)CCCCCCCC (stereo partly shown) [Compound 70] | 47.6 ng/mL | –
12 | CCCCCCCCCCC(O)CN(CCCCC(=O)S[C@H]1CO[C@H]2[C@@H]1OC[C@@H]2SC(=O)CCCCN(CC(O)CCCCCCCCCC)CC(O)CCCCCCCCCC)CC(O)CCCCCCCCCC (stereo partly shown) [Compound 80] | 0.9 ng/mL | –
13 | CCCCCCCCCCCCCCC(O)CN(CCCC(=O)O[C@@H]1CO[C@H]2[C@@H]1OC[C@@H]2OC(=O)CCCCN(CC(O)CCCCCCCCCC)CC(O)CCCCCCCCCC)CC(O)CCCCCCCCCCCCCC (stereo partly shown) [Compound 63] | 60.5 ng/mL | –
14 | CCCCCCCCCCC(O)CN(CCCSS[C@H]1CO[C@H]2[C@@H]1OC[C@@H]2SSCCCN(CC(O)CCCCCCCCCC)CC(O)CCCCCCCCCC)CC(O)CCCCCCCCCC (stereo partly shown) [Compound 45] | 2.2 ng/mL | –
15 | CCCCCC/C=C\COC(=O)CCCCCCCN(CCCCCCCC(=O)OC/C=C\CCCCCC)CCCCSC(=O)N[C@@H]1CO[C@H]2[C@@H]1OC[C@H]2NC(=O)SCCCCN(CCCCCCCC(=O)OC/C=C\CCCCCC)CCCCCCCC(=O)OC/C=C\CCCCCC [Compound 85] | 23.8 ng/mL | –
16 | CCCCCCCCCCC(O)CN(CCCCS[C@H]1CO[C@H]2[C@@H]1OC[C@@H]2SCCCCN(CC(O)CCCCCCCCCC)CC(O)CCCCCCCCCC)CC(O)CCCCCCCCCC (stereo partly shown) [Compound 46] | 2.1 ng/mL | –
17 | CCCCCCCCCCCCC(O)CN(CCCCC(=O)SC1CO[C@@H]2C(SC(=O)CCCCN(CC(O)CCCCCCCCCCCC)CC(O)CCCCCCCCCCCC)CO[C@H]12)CC(O)CCCCCCCCCCCC (stereo partly shown) [Compound 83] | 8.0 ng/mL | –
18 | CCCCCCCCCCCOC(=O)CCCCCN(CCCCCCCC(=O)OC(CCCCCCCC)CCCCCCCC)CCCCSC(=O)N[C@H]1CO[C@H]2[C@@H]1OC[C@@H]2NC(=O)SCCCCN(CCCCCCCC(=O)OC(CCCCCCCC)CCCCCCCC)CCCCCC(=O)OCCCCCCCCCCC (stereo in doubt) [Compound 84] | 22.1 ng/mL | –
19 | CCCCCCCCCCC(O)CN(CCCC(=O)S[C@H]1CO[C@H]2[C@@H]1OC[C@@H]2SC(=O)CCCN(CC(O)CCCCCCCCCC)CC(O)CCCCCCCCCC)CC(O)CCCCCCCCCC (stereo partly shown) [Compound 44] | 2.0 ng/mL | –
20 | CCCCCCCCCCCOC(=O)CCCC(O)CN(CCCCC(=O)O[C@@H]1CO[C@H]2[C@@H]1OC[C@@H]2OC(=O)CCCN(CC(O)CCCCCC(=O)OC(CCCCCCCC)CCCCCCCC)CC(O)CCCC(=O)OCCCCCCCCCCC)CC(O)CCCCCC(=O)OC(CCCCCCCC)CCCCCCCC (stereo partly shown) [Compound 66] | 23.2 ng/mL | –
21 | CCCCCCCCCCC(O)CN(CCCCCC(=O)O[C@@H]1CO[C@H]2[C@@H]1OC[C@@H]2OC(=O)CCCCN(CC(O)CCCCCCCCCC)CC(O)CCCCCCCCCC)CC(O)CCCCCCCCCC (stereo partly shown) [Compound 67] | 34.4 ng/mL | –
22 | CCCCC/C=C\C/C=C\CCCCCCCCC(CCCCCCCC/C=C\C/C=C\CCCCC)OC(=O)CCCN(C)C [MC3, reference compound] | – | hEPO 6 Hr (ng/ml) Mean (Table 2, isosorbide-derived lipids, mouse serum 6 hours post single IM injection of 0.1 μg hEPO mRNA LNP): 7.1 ng/mL; hEPO 6 Hr (ng/mL) Mean (Table 3, isomannide-derived lipids, mouse serum 6 hours post single IM injection of 0.1 μg hEPO mRNA LNP): 5.6 ng/mL
23 | CCCCCCCCCCCOC(=O)CCCC(O)CN(CCCC(=O)O[C@H]1CO[C@H]2[C@@H]1OC[C@H]2OC(=O)CCCN(CC(O)CCCCCOC(=O)C(CCCCCCCC)CCCCCCCC)CC(O)CCCC(=O)OCCCCCCCCCCC)CC(O)CCCCCOC(=O)C(CCCCCCCC)CCCCCCCC (stereo partly shown) [Compound 64] | 36.2 ng/mL | –
24 | CCCCCCCCCCCOC(=O)CCCC(O)CN(CCCC(=O)O[C@@H]1CO[C@H]2[C@@H]1OC[C@H]2OC(=O)CCCN(CC(O)CCCCCOC(=O)C(CCCCCCCC)CCCCCCCC)CC(O)CCCC(=O)OCCCCCCCCCCC)CC(O)CCCCCOC(=O)C(CCCCCCCC)CCCCCCCC (stereo partly shown) [Compound 12] | 34.4 ng/mL | –
25 | CCCCCCCCCCC(O)CCN(CCCNC(=O)O[C@@H]1CO[C@H]2[C@@H]1OC[C@H]2OC(=O)NCCCN(CC(O)CCCCCCCCCC)CC(O)CCCCCCCCCC)C(O)CCCCCCCCCC (stereo partly shown) [Compound 48] | 81.3 ng/mL | –
26 | CCCCCCCCCCCOC(=O)CCCC(O)CN(CCCC(=O)N[C@H]1CO[C@H]2[C@@H]1OC[C@@H]2NC(=O)CCCN(CC(O)CCCCCC(=O)OC(CCCCCCCC)CCCCCCCC)CC(O)CCCC(=O)OCCCCCCCCCCC)CC(O)CCCCCC(=O)OC(CCCCCCCC)CCCCCCCC (stereo partly shown) [Compound 73] | 23.4 ng/mL | –
27 | CCCCCCCCC(O)CN(CCCO[C@@H]1CO[C@H]2[C@@H]1OC[C@H]2OCCCN(CC(O)CCCCCCCC)CC(O)CCCCCCCC)CC(O)CCCCCCCC (stereo partly shown) [reference compound] | – | hEPO 6 Hr (ng/ml) Mean [2]: 11.3 ng/mL
